Legend:
[1] = system: ovalbumin (OVA) sensitized mouse model of asthma; experiment: ovalbumin (OVA) sensitized mouse model of asthma; type: in vivo, BALB/c mice; settings: for IL-13: once daily subcutaneous injection, dexamethasone 5 mg/kg, triol 1 mg/mouse; for level of IL-5 in lung tissue: vehicle value stated for day 38, subcutaneous treatment
Procedure: BALB/c mice were sensitized by intraperitoneal injection with OVA (in alum adjuvant) on days 1, and 12. Airways were challenged with OVA on days 28 and 30 by delivery of OVA to the lung, or with saline. On day 31, six mice were with saline and 6 mice challenged with OVA were sacrificed and lung tissue was analyzed. The remaining animals were divided into 6 groups (6 mice per group). Groups of the mice were treated once daily by subcutaneous injection as follows. Group 1 vehicle control (0.1% carboxymethyl cellulose, 0.9% saline, 2% Tween 80, 0.05% phenol). Group 2 dexamethasone (5 mg/kg). Group 3 androstane-3α,16α,17α-triol (1 mg/mouse). Three animals in groups 1-3 were sacrificed on day 35 at 1 hr after final treatment and the remaining 3 animals in groups 1-3 were sacrificed on day 38.

[2] = system: bone marrow-derived mast cells (BMMC); experiment: mast cell stimulus-coupled degranulation (release of β-glucuronidase); type: cell-based, Balb/C mice
Procedure: In another protocol, a population of mast cells was cultivated from murine bone marrow as follows. Briefly, bone marrows from Balb/C mice were flushed from the femur using PBS and a 27 g needle. The cells were cultured in a mixture of ⅔ RPMI-1640 with 19% FBS and cells that secreted IL-3. The bone marrow cells were allowed to differentiate for 18-25 days in the IL-3-containing mixture before being used for experiments. Bone marrow cells cultured in this manner have a phenotype similar to mucosal mast cells and are referred to as bone marrow-derived mast cells (BMMC).
The homogeneity of the in vitro propagated mast cells was checked by conventional flow cytometric techniques and staining for cell-type specific markers. Between days 14 and 21 of propagation, mature mast cells were harvested and prepared for the test cultures. The objective was to assess of the effect of compounds such as dehydroepiandrosterone on mast cell stimulus-coupled degranulation. Prepared mast cells were dispensed into test culture wells at a density of 1×10^7 cells/mL. In control cultures, mast cells were induced to degranulate after cross linking of IgE receptors with IgE antigen-antibody complexes. In parallel groups of cultures mast cells were preincubated dehydroepiandrosterone at various doses followed by activation using anti-IgE antibody. There was no detectable degranulation of mast cells as measured by release of β-glucuronidase from cytosolic storage granules of the cells in the absence of the stimulus. Introduction of anti-Ig-E receptor antibody to the cultures caused a significant release of β-glucuronidase.

[3] = day 35, 1 hr after final treatment

Row | Structure (SMILES) | capacity to limit eosinophil burden and reduce key inflammatory mediators (IL-5, IL-13, cysteinyl leukotrienes) ([1]; OVA sensitized mice) | IL-13 increase (rebound) after treatment ([1]; compared with dexamethasone treated animals) | IL-13 [1, 3] [pg/mL] | IL-13 ([1]; day 38) [pg/mL] | level of IL-5 in lung tissue [1] [pg/mL] | inhibition at 100 µM ([2]; Mus musculus, BMMC, 100 μM, pre-exposed 5 to 10 minutes before activation with anti-IgE antigen-antibody complexes) [%] | inhibition of degranulation at lower levels ([2]; levels lower than 100 μM) | degranulation on exposure to compound alone ([2]; no stimulus, release of β-glucuronidase)
1 | C[C@]12CC[C@H]3[C@@H](CCC4C[C@H](O)CC[C@@]43C)[C@@H]1C[C@@H](O)[C@H]2O (stereo partly drawn) [androstane-3α,16α,17α-triol] | limit eosinophil burden and to reduce key inflammatory mediators | did not generate an IL-13 increase | 195 | 210 | 90 |  |  | 
2 | C[C@]12CC[C@H](O)CC1=CC[C@@H]1[C@@H]2CC[C@]2(C)C(=O)CC[C@@H]12 [dehydroepiandrosterone] |  |  |  |  |  | ~70 | proportionately less capacity to inhibit degranulation | no measurable degranulation
3 | C[C@@H]1C[C@H]2[C@@H]3CCC4=CC(=O)C=C[C@]4(C)[C@@]3(F)[C@@H](O)C[C@]2(C)[C@@]1(O)C(=O)CO [dexamethasone] |  |  | 340 | 390 | 145 |  |  | 

From patent publication US20120252774A1, “STEROID TETROL SOLID STATE FORMS - 2” (priority 2010, published 2012)
